Experimental data reported in ChEMBL document CHEMBL1201862, “PubChem BioAssay data set” (2004).
Calls of active or inactive are those of the source.

What was measured:
[1] = target: Caspase-7 (Homo sapiens, UniProt P55210); experiment: procaspase-7 activators, dose response, dual procaspase-3/-7 activator project, biochemical, absorbance, human (AID 504330)
[2] = target: T1, Caspase-3 (Homo sapiens, UniProt P42574); experiment: procaspase-3 activation potency of dual hits, dose response, counter-screen for dual procaspase-3/7 activator project, biochemical, absorbance, PC-3 D3A mutant (AID 504328)
T1 sequence (P42574 whole entry): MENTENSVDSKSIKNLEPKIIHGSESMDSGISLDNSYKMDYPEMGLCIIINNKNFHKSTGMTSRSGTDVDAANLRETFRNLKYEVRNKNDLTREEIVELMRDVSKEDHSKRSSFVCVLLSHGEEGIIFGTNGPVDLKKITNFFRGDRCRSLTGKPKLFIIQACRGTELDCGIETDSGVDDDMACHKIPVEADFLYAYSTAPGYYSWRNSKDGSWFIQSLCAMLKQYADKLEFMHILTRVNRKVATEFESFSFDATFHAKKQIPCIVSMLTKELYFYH

[3] = cells; format: functional
[4] = Luminescence Cell-Based Dose Retest to Confirm Inhibitors of Cancer Stem Cells. [Related pubchem assays (depositor defined):AID2717, AID2721]; format: functional; settings: Homo sapiens
[5] = target: Disintegrin and metalloproteinase domain-containing protein 17 (Homo sapiens, UniProt P78536); experiment: ADAM17 protease inhibitors, dose response, counter-screen for ADAM10 exosite inhibitor project, biochemical, quenched FRET substrate (AID 743253)
Disintegrin and metalloproteinase domain-containing protein 17, sequence (P78536 whole entry, the tested form may be a part): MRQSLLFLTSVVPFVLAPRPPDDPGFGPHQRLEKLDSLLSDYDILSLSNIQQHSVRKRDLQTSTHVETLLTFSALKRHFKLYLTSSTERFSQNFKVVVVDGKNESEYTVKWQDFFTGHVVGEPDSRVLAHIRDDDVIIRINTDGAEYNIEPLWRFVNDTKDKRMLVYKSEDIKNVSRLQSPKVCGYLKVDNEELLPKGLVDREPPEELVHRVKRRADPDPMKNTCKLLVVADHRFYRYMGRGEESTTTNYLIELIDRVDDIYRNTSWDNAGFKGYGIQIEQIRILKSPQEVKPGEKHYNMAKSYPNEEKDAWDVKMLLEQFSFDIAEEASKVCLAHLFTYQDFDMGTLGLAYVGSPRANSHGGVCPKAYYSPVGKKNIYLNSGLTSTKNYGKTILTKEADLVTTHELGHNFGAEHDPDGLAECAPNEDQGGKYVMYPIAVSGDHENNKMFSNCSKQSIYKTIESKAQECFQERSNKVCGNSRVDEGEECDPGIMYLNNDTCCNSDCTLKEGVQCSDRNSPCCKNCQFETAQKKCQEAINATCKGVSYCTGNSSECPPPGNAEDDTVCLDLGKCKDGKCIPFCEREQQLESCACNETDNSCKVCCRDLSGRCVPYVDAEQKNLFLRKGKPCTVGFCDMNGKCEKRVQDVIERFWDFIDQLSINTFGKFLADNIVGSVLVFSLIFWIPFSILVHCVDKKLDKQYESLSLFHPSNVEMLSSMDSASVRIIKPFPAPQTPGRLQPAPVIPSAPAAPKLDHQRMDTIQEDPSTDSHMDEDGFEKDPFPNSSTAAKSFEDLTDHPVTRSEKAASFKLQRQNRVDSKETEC

[6] = HepG2 cell cytotoxicity, dose response, cytotoxicity control, plate reader, cherry-pick, antagonist series (AID 743416); format: functional, cell-based
[7] = non-specific cell cytotoxicity, dose response, cytotoxicity control for PAX8 inhibitor project, plate reader, dry powder samples (AID 743021); format: functional, cell-based
[8] = target: T2, Calpain-2 catalytic subunit (Sus scrofa, UniProt P43367); experiment: pig calpain II inhibitor potency, dose response, biochemical, fluorogenic peptide substrate (AID 1420); format: functional
T2 sequence (P43367 whole entry): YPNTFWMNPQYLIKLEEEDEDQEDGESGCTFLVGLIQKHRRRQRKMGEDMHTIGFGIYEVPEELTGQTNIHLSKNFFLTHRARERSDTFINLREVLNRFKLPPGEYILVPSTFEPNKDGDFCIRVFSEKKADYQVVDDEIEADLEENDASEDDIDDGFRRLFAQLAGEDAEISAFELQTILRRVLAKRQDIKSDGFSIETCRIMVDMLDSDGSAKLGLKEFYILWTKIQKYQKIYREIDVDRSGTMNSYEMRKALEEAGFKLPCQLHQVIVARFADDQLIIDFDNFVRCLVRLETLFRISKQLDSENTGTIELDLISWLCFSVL

[9] = THP-1 cell cytotoxicity, dose response, cytotoxicity control for non-replicating M. tuberculosis project (AID 489025); format: functional
[10] = LGR2 antagonists, dose response, cell-based, HEK293, CRE-luciferase reporter, cherry pick, set 2 (AID 743343); format: functional;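 also: transfected cells were stimulated with diluted bursicon conditioned medium after compound addition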
[11] = HEK293 cell cytotoxicity, dose response, cytotoxicity control, plate reader, cherry-picked samples (AID 743446); format: functional, cell-based
[12] = target: T3, Microphthalmia-associated transcription factor (Homo sapiens, UniProt O75030); experiment: TRPM1 promoter luciferase signal decrease, dose response, MITF inhibitor project, cell-based, SK-MEL-5, cherry-picked, set 3 (AID 493073); format: functional
T3 sequence (O75030 whole entry): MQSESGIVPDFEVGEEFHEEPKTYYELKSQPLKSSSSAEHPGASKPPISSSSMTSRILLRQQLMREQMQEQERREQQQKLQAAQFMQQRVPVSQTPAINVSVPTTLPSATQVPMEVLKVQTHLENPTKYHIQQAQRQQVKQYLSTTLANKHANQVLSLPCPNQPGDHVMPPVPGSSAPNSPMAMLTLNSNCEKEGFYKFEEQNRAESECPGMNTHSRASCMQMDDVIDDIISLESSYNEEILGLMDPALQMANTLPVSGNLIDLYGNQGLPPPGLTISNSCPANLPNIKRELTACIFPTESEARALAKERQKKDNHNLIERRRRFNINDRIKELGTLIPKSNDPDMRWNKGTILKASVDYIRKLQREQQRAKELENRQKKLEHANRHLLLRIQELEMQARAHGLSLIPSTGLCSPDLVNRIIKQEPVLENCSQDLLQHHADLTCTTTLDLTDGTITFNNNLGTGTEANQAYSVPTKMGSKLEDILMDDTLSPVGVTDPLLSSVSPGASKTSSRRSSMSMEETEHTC

[13] = A549 cell cytotoxicity, dose response, cytotoxicity control, plate reader, cherry-pick, antagonist series (AID 743412); format: functional, cell-based
[14] = HepG2 cell cytotoxicity, dose response, cytotoxicity control for non-replicating M. tuberculosis project (AID 489018); format: functional; settings: Mycobacterium tuberculosis
[15] = target: Neurotensin receptor type 1 (Homo sapiens, UniProt P30989); format: functional;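 also: Image-based confirmatory dose-response assay measuring agonist activity at NTR1; NTR1-expressing U2OS osteosarcoma cells imaged for beta-arrestin GFP spot formation; agonist potency where compounds increase beta-arrestin recruitment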
Neurotensin receptor type 1, sequence (P30989 whole entry): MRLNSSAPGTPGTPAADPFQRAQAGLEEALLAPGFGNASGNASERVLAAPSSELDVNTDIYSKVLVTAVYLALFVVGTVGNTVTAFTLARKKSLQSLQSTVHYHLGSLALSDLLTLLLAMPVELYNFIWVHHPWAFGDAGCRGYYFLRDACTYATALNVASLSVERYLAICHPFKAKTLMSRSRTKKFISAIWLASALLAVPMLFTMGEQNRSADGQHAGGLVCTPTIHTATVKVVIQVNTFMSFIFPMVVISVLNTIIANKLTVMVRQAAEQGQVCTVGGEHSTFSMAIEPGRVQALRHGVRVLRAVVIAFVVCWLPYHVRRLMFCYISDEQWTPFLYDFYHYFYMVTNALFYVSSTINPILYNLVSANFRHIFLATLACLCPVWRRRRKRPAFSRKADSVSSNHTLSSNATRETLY

[16] = ADAM10 inhibitors, peptide cleavage, dose response, biochemical, QFRET (AID 743254);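 also: ADAM10 enzyme with the DM2 quenched FRET peptide as substrate; EDANS fluorescence gain as the protease cuts the substrate; inhibitor potency against ADAM10 proteolytic activity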
[17] = Vero E6 cell cytotoxicity, dose response, cytotoxicity control for non-replicating M. tuberculosis project, secondary assay (AID 492998); format: functional, VeroE6; settings: Vero C1008
[18] = microbe, parasite or virus in culture; format: functional; settings: Mycobacterium tuberculosis
[19] = target: Paired box protein Pax-8 (Homo sapiens, UniProt Q06710); experiment: inhibitors of PAX8-driven TPO luciferase reporter, dose response, RMG-I cells, cherry-pick (AID 687027); format: functional, cell-based;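 also: luciferase reporter driven by Pax8 target thyroperoxidase promoter measured by SteadyGlo luminescence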
Paired box protein Pax-8, sequence (Q06710 whole entry): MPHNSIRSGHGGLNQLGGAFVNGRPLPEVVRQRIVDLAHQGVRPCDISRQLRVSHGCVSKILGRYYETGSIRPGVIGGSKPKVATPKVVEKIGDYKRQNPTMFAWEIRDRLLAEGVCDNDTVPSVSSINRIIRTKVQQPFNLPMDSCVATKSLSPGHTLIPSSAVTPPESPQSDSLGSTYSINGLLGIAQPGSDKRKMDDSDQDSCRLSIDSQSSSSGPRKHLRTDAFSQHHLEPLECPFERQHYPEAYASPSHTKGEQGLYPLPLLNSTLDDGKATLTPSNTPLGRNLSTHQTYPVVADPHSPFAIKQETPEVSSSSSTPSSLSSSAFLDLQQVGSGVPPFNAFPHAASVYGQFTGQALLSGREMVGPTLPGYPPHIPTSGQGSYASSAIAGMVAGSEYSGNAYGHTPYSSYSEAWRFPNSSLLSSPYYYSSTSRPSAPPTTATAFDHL

[20] = MC4R antagonists, dose response, counter-screen for LGR2 antagonist project, cell-based, plate reader, cherry pick (AID 743444); format: functional;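 also: transfected HEK 293 cells stimulated with alpha-MSH peptide; potency of inhibitors of the alpha-MSH evoked signal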
[21] = system: A-375; experiment: A375 melanoma cell viability reduction, dose response, counter-screen for MITF modulator project, cherry-pick samples, set 2 (AID 540335); format: functional, cell-based; settings: Homo sapiens
[22] = target: T4, Protein skinhead-1 (Caenorhabditis elegans, UniProt P34707); format: functional
T4 sequence (P34707 whole entry): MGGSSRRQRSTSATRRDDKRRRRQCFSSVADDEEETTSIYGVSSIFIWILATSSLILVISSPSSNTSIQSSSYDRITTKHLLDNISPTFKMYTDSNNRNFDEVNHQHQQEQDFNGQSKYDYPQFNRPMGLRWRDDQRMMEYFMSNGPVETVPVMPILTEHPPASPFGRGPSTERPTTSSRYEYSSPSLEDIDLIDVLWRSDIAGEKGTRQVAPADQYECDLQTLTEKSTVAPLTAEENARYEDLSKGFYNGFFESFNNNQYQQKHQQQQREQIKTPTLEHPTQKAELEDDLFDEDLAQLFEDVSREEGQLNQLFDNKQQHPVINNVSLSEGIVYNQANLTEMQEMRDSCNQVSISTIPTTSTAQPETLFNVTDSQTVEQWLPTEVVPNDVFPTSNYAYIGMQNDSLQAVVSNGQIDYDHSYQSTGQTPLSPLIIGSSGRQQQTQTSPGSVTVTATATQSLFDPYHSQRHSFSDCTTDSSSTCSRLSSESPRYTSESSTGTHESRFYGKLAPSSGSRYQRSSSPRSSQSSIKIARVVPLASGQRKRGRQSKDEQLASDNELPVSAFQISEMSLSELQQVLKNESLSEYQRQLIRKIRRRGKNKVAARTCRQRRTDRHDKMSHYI

[23] = target: Prothrombin (Homo sapiens, UniProt P00734); experiment: Thrombin 1536 HTS Dose Response Confirmation. [Related pubchem assays: 1046 (Thrombin 1536 HTS; hits were confirmed in this assay)]; format: functional
[24] = target: T5, Coagulation factor XII (Homo sapiens, UniProt P00748); format: functional;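 also: activated factor XIIa alpha cleaving a fluorogenic AMC peptide substrate; inhibitor potency from loss of enzyme activity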
T5 sequence (P00748 whole entry): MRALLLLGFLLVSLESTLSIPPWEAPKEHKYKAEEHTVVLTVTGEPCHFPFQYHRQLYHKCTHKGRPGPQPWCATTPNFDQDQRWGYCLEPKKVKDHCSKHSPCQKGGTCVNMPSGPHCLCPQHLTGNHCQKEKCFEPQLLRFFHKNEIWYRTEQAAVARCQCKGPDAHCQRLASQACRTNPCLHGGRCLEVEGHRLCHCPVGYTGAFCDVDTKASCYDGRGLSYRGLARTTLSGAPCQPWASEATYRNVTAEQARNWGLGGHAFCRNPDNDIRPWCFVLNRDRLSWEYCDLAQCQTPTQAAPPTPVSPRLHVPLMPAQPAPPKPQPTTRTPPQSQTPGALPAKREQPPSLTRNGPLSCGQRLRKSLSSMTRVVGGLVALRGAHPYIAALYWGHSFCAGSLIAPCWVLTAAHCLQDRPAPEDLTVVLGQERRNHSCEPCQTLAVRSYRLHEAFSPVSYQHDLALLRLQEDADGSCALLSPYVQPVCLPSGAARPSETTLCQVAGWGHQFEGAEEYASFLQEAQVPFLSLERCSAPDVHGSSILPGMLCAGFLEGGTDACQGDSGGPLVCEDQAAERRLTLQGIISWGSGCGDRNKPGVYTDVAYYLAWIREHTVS

[25] = target: T6, Voltage-dependent T-type calcium channel subunit alpha-1H (Homo sapiens, UniProt O95180); experiment: Inhibitors of T-Type Calcium Channels. [Related pubchem assays (depositor defined):AID449739, AID463087, AID489005, AID493041, AID504579, AID504584, AID504619, AID504628]; format: functional
T6 sequence (O95180 whole entry): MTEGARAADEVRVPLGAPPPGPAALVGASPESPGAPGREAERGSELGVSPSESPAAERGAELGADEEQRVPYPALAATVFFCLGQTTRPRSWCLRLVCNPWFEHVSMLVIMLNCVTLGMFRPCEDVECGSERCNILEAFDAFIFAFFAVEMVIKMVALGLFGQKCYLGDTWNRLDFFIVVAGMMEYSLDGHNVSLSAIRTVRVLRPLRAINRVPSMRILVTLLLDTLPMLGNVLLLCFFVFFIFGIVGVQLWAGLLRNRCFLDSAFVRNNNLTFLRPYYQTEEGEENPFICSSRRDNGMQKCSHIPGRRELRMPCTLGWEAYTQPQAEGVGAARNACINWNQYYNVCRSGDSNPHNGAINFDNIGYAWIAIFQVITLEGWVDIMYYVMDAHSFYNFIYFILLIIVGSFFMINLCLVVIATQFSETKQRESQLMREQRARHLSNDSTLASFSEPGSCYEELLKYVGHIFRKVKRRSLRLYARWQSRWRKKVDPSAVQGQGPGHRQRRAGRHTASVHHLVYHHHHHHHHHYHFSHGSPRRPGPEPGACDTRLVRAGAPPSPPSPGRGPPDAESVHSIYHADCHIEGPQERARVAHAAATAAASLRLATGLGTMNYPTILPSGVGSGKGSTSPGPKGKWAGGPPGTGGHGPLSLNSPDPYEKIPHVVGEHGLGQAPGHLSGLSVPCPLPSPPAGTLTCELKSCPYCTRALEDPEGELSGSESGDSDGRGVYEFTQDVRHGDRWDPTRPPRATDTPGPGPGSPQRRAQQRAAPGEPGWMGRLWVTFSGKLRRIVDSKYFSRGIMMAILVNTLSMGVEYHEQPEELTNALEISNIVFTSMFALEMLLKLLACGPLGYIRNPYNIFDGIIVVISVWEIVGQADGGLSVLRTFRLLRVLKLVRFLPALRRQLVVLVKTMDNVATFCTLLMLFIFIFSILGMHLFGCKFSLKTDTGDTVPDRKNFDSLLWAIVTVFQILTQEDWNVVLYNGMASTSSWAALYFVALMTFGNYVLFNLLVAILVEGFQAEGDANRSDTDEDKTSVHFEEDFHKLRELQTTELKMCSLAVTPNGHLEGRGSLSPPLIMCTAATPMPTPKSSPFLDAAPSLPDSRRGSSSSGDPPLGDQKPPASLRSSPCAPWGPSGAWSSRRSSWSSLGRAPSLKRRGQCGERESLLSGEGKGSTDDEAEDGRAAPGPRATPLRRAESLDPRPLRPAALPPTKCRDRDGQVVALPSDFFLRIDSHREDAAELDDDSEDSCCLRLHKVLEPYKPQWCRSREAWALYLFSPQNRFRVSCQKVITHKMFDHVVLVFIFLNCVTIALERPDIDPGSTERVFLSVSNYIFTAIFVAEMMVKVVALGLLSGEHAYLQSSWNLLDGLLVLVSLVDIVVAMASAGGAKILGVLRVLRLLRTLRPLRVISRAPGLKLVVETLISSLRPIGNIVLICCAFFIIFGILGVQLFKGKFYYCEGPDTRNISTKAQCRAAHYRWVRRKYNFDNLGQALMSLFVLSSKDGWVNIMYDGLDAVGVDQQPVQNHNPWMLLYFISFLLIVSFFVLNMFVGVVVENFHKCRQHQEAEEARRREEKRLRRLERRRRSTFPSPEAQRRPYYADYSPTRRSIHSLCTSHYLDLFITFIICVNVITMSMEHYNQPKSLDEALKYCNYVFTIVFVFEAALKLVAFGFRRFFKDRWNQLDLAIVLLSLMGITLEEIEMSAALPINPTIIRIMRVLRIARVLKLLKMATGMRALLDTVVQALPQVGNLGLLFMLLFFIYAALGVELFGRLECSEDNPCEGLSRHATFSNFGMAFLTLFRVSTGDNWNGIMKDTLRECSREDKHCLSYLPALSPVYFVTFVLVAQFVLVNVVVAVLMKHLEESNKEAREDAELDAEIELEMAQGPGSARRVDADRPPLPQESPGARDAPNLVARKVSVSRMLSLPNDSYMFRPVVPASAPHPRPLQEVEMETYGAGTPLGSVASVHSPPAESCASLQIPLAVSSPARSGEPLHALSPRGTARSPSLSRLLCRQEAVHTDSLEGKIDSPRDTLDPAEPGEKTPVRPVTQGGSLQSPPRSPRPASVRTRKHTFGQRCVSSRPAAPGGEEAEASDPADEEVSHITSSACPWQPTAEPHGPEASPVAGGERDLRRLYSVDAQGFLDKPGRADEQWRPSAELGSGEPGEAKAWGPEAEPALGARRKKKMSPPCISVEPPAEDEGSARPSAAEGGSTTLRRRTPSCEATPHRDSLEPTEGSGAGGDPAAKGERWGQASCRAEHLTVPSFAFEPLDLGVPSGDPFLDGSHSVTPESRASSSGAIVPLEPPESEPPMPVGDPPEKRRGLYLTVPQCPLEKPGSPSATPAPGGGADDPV

[26] = target: T6, Voltage-dependent T-type calcium channel subunit alpha-1H; format: functional
[27] = target: T7, Short transient receptor potential channel 4 (Mus musculus, UniProt Q9QUQ5); experiment: mouse TRPC4 channel inhibitors, dose response, cell-based, HEK293 TRPC4/mu-opioid, Fluo-4 calcium (AID 434942); format: functional;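 also: potency of inhibitors blocking the TRPC4 calcium response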
T7 sequence (Q9QUQ5 whole entry): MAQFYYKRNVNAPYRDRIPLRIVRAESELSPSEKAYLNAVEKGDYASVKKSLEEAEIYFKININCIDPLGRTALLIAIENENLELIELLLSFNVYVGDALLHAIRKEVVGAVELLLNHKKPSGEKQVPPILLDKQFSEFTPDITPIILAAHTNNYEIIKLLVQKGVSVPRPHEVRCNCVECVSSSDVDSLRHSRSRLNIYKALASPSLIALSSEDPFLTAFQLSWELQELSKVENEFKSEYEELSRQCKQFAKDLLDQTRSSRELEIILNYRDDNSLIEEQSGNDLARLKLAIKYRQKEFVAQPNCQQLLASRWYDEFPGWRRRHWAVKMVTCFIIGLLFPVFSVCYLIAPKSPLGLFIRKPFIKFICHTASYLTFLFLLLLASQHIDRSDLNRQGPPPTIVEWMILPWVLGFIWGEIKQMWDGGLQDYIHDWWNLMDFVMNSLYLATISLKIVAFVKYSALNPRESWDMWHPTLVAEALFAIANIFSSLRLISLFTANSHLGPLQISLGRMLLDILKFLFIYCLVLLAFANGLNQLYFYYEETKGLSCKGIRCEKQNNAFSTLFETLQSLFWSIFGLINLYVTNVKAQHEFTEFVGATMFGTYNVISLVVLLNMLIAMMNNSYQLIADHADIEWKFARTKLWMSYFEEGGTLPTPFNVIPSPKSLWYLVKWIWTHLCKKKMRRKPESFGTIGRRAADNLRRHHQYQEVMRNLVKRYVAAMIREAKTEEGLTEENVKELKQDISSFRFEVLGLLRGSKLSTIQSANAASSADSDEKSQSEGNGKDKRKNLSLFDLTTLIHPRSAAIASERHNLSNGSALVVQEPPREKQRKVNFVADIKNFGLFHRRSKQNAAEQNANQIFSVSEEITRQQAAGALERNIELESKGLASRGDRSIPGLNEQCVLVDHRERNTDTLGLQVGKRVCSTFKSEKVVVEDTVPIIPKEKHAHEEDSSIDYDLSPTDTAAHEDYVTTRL

For `CCOC(=O)/C(C#N)=C/Nc1cc(OC)ccc1OC`, the EC50 [1] was > 85.3 µM (inactive) and the EC50 [2] was > 85.3 µM (inactive).
With `OC(CNCC(c1ccc(Cl)cc1Cl)c1c[nH]c2ccccc12)c1ccccc1` (configuration not stated) the IC50 [3] was 12.3 µM (active), the AC50 [4] was 2.12 µM (active) and the IC50 [5] was > 69.5 µM (inactive). The AC50 [6] was 8.61 µM (active), the AC50 [7] was 38.2 µM (active) and the IC50 [8] was 11.4 µM (not active). The CC50 [9] was 6.38 µM (active), the AC50 [10] was 19.2 µM (active) and the AC50 [11] was 14.2 µM (active). For the same molecule, the AC50 [12] was 14.7 µM (active), the AC50 [13] was 8.71 µM (active) and the CC50 [14] was 7.75 µM (active). The EC50 [15] was 15.2 µM (active), the IC50 [16] was 13.4 µM (inactive) and the CC50 [17] was 6.27 µM (active). The CC50 [18] was 6.04 µM (active), the AC50 [19] was 11.2 µM (active) and the AC50 [20] was 21.1 µM (active). The AC50 [21] was 14.8 µM (active).
For `COc1ccc(C(=O)Nc2nc(-c3cccs3)cs2)cc1`, the IC50 [22] was 57.1 µM (inactive), the IC50 [23] was 1.14 µM (active) and the IC50 [24] was > 50 µM (inactive). The EC50 [25] was 1.1 µM (active), the EC50 [26] was 1.08 µM (active) and the EC50 [27] was 5.31 µM (active).
